Patent publication US12037344B2, “NLRP3 modulators” (INNATE TUMOR IMMUNITY, INC., priority 2018, dated 2024)
Like-named read-outs stand apart in the source and are kept apart here.

How the values were obtained:
THP-1 cells = assay: Measurement of IL-1β production, hTRF protocol (second alternative procedure), THP-1 cells; format: cell-based, human
Summary of the method: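 THP-1 cells differentiated overnight with 50 ng/ml PMA, then plated at 50,000 cells/well in RPMI with 2% FBS onto serial compound dilutions (top final concentration 10 μM) for 2 hours at 37° C. Supernatant IL-1β measured by hTRF (antibodies at 1:40, overnight at 4° C), read at 665/615 nm against a standard curve.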

TLR8 = biological target: T1, TLR8 (Homo sapiens, UniProt Q9NR97); assay: In vitro human TLR8 binding reporter assay (HEK-Blue, NF-kB/AP1-inducible SEAP); format: cell-based; details: read-out: TLR8 Agonist EC50
T1 construct: human HEK-Blue cells co-expressing a TLR7 or TLR8 gene
T1 sequence (Q9NR97 27-1041): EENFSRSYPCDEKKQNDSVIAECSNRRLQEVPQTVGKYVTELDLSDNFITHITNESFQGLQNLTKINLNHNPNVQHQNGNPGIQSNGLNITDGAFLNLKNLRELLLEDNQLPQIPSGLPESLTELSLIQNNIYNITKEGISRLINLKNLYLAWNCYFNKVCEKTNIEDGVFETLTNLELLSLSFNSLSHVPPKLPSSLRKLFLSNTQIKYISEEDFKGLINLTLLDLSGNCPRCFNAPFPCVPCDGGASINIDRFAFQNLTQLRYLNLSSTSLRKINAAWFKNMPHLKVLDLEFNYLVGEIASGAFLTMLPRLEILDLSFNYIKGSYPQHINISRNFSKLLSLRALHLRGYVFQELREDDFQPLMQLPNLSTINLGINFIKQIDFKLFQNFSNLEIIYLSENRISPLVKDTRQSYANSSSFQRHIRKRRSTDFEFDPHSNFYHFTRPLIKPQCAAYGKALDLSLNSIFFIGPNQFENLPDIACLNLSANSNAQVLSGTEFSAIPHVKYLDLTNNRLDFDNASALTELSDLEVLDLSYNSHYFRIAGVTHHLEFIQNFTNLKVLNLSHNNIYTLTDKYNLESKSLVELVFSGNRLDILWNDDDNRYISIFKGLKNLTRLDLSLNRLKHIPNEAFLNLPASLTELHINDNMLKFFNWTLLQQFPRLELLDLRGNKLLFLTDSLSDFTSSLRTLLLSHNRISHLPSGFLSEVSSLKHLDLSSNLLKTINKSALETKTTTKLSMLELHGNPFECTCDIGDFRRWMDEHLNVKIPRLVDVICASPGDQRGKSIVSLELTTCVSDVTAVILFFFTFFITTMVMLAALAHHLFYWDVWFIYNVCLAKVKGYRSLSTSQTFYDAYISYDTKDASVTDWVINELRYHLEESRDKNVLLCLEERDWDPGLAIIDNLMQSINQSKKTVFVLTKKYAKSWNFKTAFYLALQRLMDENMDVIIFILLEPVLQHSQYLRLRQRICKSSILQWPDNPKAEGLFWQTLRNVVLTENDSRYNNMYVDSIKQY
Summary of the method: (§1)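 EC50s come from NF-kB/AP1-driven SEAP secretion in HEK-Blue cells expressing TLR7 or TLR8, measured with Quanti-Blue after an 18 h compound incubation. Maximal response is defined by a 50 μM reference standard.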

TLR7 = biological target: T2, TLR7 (Homo sapiens, UniProt Q9NYK1); assay: In vitro human TLR7 binding reporter assay (HEK-Blue, NF-kB/AP1-inducible SEAP); format: cell-based; details: read-out: TLR7 Agonist EC50
T2 construct: human HEK-Blue cells co-expressing a TLR7 or TLR8 gene
T2 sequence (Q9NYK1 27-1049): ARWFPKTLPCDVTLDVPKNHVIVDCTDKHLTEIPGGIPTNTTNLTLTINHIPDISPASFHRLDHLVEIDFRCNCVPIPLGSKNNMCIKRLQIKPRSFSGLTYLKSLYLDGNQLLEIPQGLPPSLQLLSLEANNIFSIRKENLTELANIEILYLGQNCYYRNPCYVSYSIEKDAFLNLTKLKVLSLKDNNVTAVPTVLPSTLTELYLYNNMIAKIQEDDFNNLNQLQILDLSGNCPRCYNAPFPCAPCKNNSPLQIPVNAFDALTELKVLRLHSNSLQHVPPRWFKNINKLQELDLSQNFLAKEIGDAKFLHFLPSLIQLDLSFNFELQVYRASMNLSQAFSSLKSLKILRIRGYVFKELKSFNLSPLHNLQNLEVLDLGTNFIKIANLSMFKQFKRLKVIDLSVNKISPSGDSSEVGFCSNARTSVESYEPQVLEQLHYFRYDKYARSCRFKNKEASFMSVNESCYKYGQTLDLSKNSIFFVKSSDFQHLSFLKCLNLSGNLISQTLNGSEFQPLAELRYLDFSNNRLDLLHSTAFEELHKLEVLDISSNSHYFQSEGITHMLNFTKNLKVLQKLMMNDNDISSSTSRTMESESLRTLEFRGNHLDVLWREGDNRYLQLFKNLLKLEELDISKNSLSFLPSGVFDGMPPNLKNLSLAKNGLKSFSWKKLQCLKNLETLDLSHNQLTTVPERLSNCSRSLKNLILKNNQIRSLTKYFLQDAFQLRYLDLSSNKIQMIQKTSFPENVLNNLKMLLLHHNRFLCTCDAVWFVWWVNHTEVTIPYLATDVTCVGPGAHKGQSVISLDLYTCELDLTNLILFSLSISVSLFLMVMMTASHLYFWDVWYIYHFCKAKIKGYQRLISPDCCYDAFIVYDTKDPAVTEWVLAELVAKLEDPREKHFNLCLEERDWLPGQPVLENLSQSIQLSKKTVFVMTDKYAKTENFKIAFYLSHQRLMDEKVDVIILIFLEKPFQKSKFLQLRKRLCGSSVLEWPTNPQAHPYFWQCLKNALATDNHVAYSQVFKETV
Summary of the method: as §1

[1] = Homo sapiens, THP-1, IL-1β production, human, read-out: NLRP3 hILIB EC50
[2] = Homo sapiens, THP-1, IL-1β production, human cells, read-out: NLRP3 hILIB EC50
[3] = IL-1β production, human, read-out: NLRP3 hILIB EC50

SMILES | EC50 (THP-1 cells; [1]) [µM] | EC50 (TLR8; activity range class) [µM] | EC50 (TLR7; activity range class) [µM] | EC50 (THP-1 cells; [2]) [µM] | EC50 (TLR8; activity range) [µM] | EC50 (TLR7; activity range) [µM] | EC50 (THP-1 cells; Homo sapiens, THP-1, read-out: NLRP3 hILIB EC50) [µM] | EC50 (THP-1 cells; [3]) [µM]
Nc1nc2cc(-c3ccn[nH]3)ccc2c2sc(CCNC(=O)c3ccccn3)nc12 [Example 136, N-[2-[4-amino-7-(1H-pyrazol-5-yl)-[1,3]thiazolo[4,5-c]quinolin-2-yl]ethyl]pyridine-2-carboxamide] | 0.16 | > 100 | 20 to 100 | – | – | – | – | –
COCCCCn1ncc2c(N)nc3cc(-c4cc[nH]n4)ccc3c21 [Example 219] | 0.3 | > 100 | > 100 | – | – | – | – | –
C[C@H](O)Cn1ncc2c(N)nc3cc(-c4cc[nH]n4)ccc3c21 [Example 401] | – | – | – | 2.66 | > 100 | > 100 | – | –
Nc1nc2cc(-c3cc[nH]n3)ccc2c2cn(CCNC(=O)c3ccccc3)nc12 [Example 36] | 1.38 | > 100 | 20 to 100 | – | – | – | – | –
Nc1nc2cc(-n3cccn3)ccc2c2c1cnn2CCCO [Example 252, 3-(4-amino-7-(1H-pyrazol-1-yl)-1H-pyrazolo[4,3-c]quinolin-1-yl)propan-1-ol] | 1.13 | > 100 | > 100 | – | – | – | – | –
COC1CN(CCn2ncc3c(N)nc4cc(-c5cc[nH]n5)ccc4c32)C1 [Example 435] | – | – | – | 3.61 | > 100 | > 100 | – | –
Nc1nc2cc(-c3cc[nH]n3)ccc2c2cn(CCN3CCOCC3)nc12 [Example 20, 2-[2-(morpholin-4-yl)ethyl]-7-(1H-pyrazol-3-yl)-2H-pyrazolo[3,4-c]quinolin-4-amine] | – | > 100 | 20 to 100 | – | – | – | 1.08 | –
CC(C(=O)N1CCOCC1)n1cc2c(N)nc3cc(-c4ccn[nH]4)ccc3c2n1 (stereo not drawn) [Example 570] | – | – | – | 5.13 | > 100 | > 100 | – | –
Nc1nc2cc(-c3cc[nH]n3)ccc2c2nn([C@@H]3CC[C@H](O)C3)cc12 (relative stereo) [Example 210, cis-3-(4-amino-7-(1H-pyrazol-3-yl)-2H-pyrazolo[4,3-c]quinolin-2-yl)cyclopentan-1-ol] | 0.33 | > 100 | > 100 | – | – | – | – | –
CC(C(=O)N1CC[C@H](C#N)C1)n1cc2c(N)nc3cc(-c4ccn[nH]4)ccc3c2n1 (stereo partly drawn) [Example 580] | – | – | – | 20.1 | > 100 | > 100 | – | –
Nc1nc2cc(-c3cc[nH]n3)ccc2c2nn(CC(O)CC(F)(F)F)cc12 (single isomer, unassigned) [Example 379] | – | > 100 | > 100 | – | – | – | – | 0.32
Nc1nc2cc(-c3cc[nH]n3)ccc2c2c1cnn2CCN1CC(F)(F)C1 [Example 430] | – | – | – | 1.9 | > 100 | > 100 | – | –
N#CC[C@@H](O)Cn1cc2c(N)nc3cc(-c4cc[nH]n4)ccc3c2n1 [Example 381] | 0.74 | > 100 | > 100 | – | – | – | – | –
CC(C)S(=O)(=O)NCCc1cc2c(N)nc3cc(-c4cc[nH]n4)ccc3c2[nH]1 [Example 483] | – | – | – | 1.1 | > 100 | > 100 | – | –
Nc1nc2cc(-c3cccs3)ccc2c2cn(CCNC(=O)c3ccc(F)cn3)nc12 [Example 129] | 0.7 | > 100 | > 100 | – | – | – | – | –
Nc1nc2cc(-c3cc[nH]n3)ccc2c2cn(CCN3Cc4cc(Cl)ccc4C3=O)nc12 [Example 104, 2-{2-[4-amino-7-(1H-pyrazol-3-yl)-2H-pyrazolo[3,4-c]quinolin-2-yl]ethyl}-5-chloro-2,3-dihydro-1H-isoindol-1-one] | 0.13 | 1 to 20 | 20 to 100 | – | – | – | – | –
CC(CC(=O)NC1CCC1)n1cc2c(N)nc3cc(-c4cc[nH]n4)ccc3c2n1 (stereo not drawn) [Example 622] | – | – | – | 7.28 | > 100 | > 100 | – | –
Nc1nc2cc(-n3cccn3)ccc2c2cn(CCNC(=O)c3ccccn3)nc12 [Example 133, N-{2-[4-amino-7-(1H-pyrazol-1-yl)-2H-pyrazolo[3,4-c]quinolin-2-yl]ethyl}pyridine-2-carboxamide] | 0.3 | > 100 | > 100 | – | – | – | – | –
Nc1nc2cc(-c3cc[nH]n3)ccc2c2cn(CCNC(=O)c3ccc(F)cc3)nc12 [Example 42] | 0.67 | > 100 | > 100 | – | – | – | – | –
CCn1cc2c(n1)c(N)nc1cc(-c3ccn[nH]3)ccc12 [Example 188] | 0.21 | > 100 | > 100 | – | – | – | – | –
CC(C(=O)N1CC(O)C1)n1cc2c(N)nc3cc(-c4ccn[nH]4)ccc3c2n1 (stereo not drawn) [Example 579] | – | – | – | 4.47 | > 100 | > 100 | – | –
CCNC(=O)Cn1cc2c(n1)c(N)nc1cc(-c3cc[nH]n3)ccc12 [Example 529] | – | – | – | 0.87 | > 100 | > 100 | – | –
Nc1nc2cc(-c3cc[nH]n3)ccc2c2nn(CC(O)CF)cc12 (single isomer, unassigned) [Example 377] | – | > 100 | > 100 | – | – | – | – | 0.45
Nc1nc2cc(-c3cc[nH]n3)ccc2c2cn(CCNC(=O)c3cnc4ccccn4c3=O)nc12 [Example 98] | 1.59 | > 100 | > 100 | – | – | – | – | –
COCCn1ncc2c(N)nc3cc(-c4cc[nH]n4)ccc3c21 [Example 208, 1-(2-methoxyethyl)-7-(1H-pyrazol-3-yl)-1H-pyrazolo[4,3-c]quinolin-4-amine] | 0.49 | > 100 | > 100 | – | – | – | – | –
